{"source": "paper PMC7143284", "about": "“A Phenotarget Approach for Identifying an Alkaloid Interacting with the Tuberculosis Protein Rv1466” (Marine Drugs, 2020)", "molecular_target": "Rv1466 (Mycobacterium tuberculosis, UniProt O53157)", "sequence (O53157 1-115 limits assumed)": "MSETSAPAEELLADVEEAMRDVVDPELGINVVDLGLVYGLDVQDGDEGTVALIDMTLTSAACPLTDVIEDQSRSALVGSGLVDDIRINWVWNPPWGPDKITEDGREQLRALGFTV", "assay": "[…]; bound species is […] Da (half of the disulfide dimer)", "assay_type": "binding"}
{"smiles": "COc1ccc(-c2nc(N)n(C)c2SSc2c(-c3ccc(OC)cc3)nc(N)n2C)cc1", "note": "[polycarpine]", "values": [{"measurement": "Kd", "value": "5.3 ± 0.4", "unit": "µM"}]}
